Laboratory results reported in US20240010684A1, “MASP INHIBITORY COMPOUNDS AND USES THEREOF” (BAYER AKTIENGESELLSCHAFT, priority 2020, published 2024).
Where a SMILES comes first, the peptide text is derived from it. Bridges are numbered along the chain shown (N, C = ends). Triazole bridges read from a SMILES are 1,4-linked. [ ]: non-standard residue; d: D form. Oic = O=C(O)[C@@H]1C[C@@H]2CCCC[C@@H]2N1; Dap(N3) = [N-]=[N+]=NC[C@H](N)C(=O)O; tBuAla = CC(C)(C)C[C@H](N)C(=O)O; Pen = CC(C)(S)[C@H](N)C(=O)O; NMeC = CN[C@@H](CS)C(=O)O; Orn = NCCC[C@H](N)C(=O)O; Pra = C#CC[C@H](N)C(=O)O; Dab = NCC[C@H](N)C(=O)O; Dap = NC[C@H](N)C(=O)O; Ahx = NCCCCCC(=O)O

Columns and labels:
human MASP2 = human MASP2 (Homo sapiens (Human), UniProt O00187); assay: Biochemical human MASP2 assay (FRET substrate); conditions: Average IC50; recombinant human MASP2; read-out: human MASP2 IC50
Sequence of human MASP2 (O00187 other isoform, or with tags, fused parts or gaps): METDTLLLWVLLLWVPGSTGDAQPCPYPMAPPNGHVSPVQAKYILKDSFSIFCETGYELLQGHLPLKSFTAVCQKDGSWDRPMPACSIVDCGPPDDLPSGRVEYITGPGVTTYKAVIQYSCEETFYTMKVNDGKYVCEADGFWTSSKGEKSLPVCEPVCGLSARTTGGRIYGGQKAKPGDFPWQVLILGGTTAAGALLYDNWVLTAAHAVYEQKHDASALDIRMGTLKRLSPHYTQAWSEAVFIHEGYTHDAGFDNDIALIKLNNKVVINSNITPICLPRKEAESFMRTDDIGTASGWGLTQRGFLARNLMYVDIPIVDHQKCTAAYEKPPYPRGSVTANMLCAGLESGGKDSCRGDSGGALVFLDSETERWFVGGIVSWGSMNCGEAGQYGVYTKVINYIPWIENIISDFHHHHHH
Text: The MASP1 or MASP2 expression vectors were transfected into the HEK293 (ATCC No. CRL-1573) cell line using Lipofectamine LTX® Reagent (Thermo-Fischer), as described by the manufacturer. The mature form of the recombinant human MASP1 and M[…] were secreted into the culture medium. The MASP1 and M[…] were purified from the conditioned media by affinity chromatography on Ni-NTA Superflow resin (Qiagen) as described by the manufacturer. 2.3 Biochemical Human MASP2 Assay […] The enzymatic reaction was initiated by addition of 25 μl of 60 μM solution of the FRET substrate DABCYL-[…]; […] The microtiter plate was incubated for 60-120 min at the temperature of 32 C. The increase of fluorescence intensity was measured in appropriate fluorescence plate reader (e.g. TECAN Ultra) using excitation wavelength of 340 nm and emission wavelength of 490 nm. IC50 values were calculated from percentage of inhibition of human MASP2 activity as a function of test compound concentration.

human MASP1 = human MASP1 (Homo sapiens (Human), UniProt P48740); assay: Biochemical human MASP1 assay (FRET substrate); conditions: Average IC50; recombinant human MASP1; read-out: human MASP1 IC50
Sequence of human MASP1 (P48740 other isoform, or with tags, fused parts or gaps): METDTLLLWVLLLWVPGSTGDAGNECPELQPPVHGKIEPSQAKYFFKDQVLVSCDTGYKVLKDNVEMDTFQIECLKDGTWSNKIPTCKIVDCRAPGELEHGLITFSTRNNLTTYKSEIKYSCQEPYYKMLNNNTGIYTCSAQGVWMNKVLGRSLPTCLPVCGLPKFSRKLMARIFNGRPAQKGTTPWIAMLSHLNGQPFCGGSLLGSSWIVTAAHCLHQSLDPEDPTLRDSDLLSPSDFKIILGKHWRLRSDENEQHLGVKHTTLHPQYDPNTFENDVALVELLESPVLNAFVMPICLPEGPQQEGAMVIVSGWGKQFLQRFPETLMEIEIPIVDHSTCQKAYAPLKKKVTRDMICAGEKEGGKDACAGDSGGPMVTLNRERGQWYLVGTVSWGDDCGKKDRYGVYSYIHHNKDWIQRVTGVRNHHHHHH
Text: A truncated cDNA sequence of human MASP1 encoding the fragment corresponding to the amino acids 297-699 with a C-terminal His Tag and N-terminal Ig-kappa secretion signal (SEQ ID No: 2) was subcloned into the mammalian expression vector pcDNA3.1 (Invitrogen).
The MASP1 or MASP2 expression vectors were transfected into the HEK293 (ATCC No. CRL-1573) cell line using Lipofectamine LTX® Reagent (Thermo-Fischer), as described by the manufacturer. The mature form of the recombinant human MASP1 and MASP2 proteases were secreted into the culture medium. The MASP1 and MASP2 proteins were purified from the conditioned media by affinity chromatography on Ni-NTA Superflow resin (Qiagen) as described by the manufacturer.
2.2 Biochemical Human MASP1 Assay
Recombinant human MASP1 enzyme produced in the HEK 293 cells was diluted in the reaction buffer (50 mM HEPES pH 8,0; 100 mM NaCl; 0,01% CHAPS; 0.5 mM Gluthathione) to the concentration of 20 nM and 25 μl was transferred into each single well of 384-well white microtiter plate (Greiner Bio One 781075). 1 μl of the inhibitor compound solution (dissolved in DMSO, at the corresponding concentration) or pure DMSO as a control was added to the same wells. The enzymatic reaction was initiated by addition of 25 μl of 20 μM solution of the FRET substrate ABZ-[…]-Lys (Dnp)-NH2; (ABZ-2-aminobenzoyl; DNP 2,4-dinitrophenyl; custom synthesis by Jerini Peptide Technologies, Berlin) in the reaction buffer. The microtiter plate was incubated for 60-120 min at the temperature of 32 C. The increase of fluorescence intensity was measured in appropriate fluorescence plate reader (e.g. TECAN Ultra) using excitation wavelength of 320 nm and emission wavelength of 420 nm. IC50 values were calculated from percentage of inhibition of human MASP1 activity as a function of test compound concentration.

CC[C@H](C)[C@@H]1NC(=O)[C@H](C)NC(=O)CCCCCNC(=O)[C@H](CC(=O)O)NC(=O)[C@@H]2CCCN2C(=O)[C@H]([C@@H](C)CC)NC(=O)[C@H]2NC(=O)[C@H]([C@@H](C)CC)NC(=O)[C@@H]3CCCN3C(=O)[C@@H]3CCCN3C(=O)[C@H](CC(C)(C)C)NC(=O)[C@H](CO)NC(=O)[C@H](CCCNC(=N)N)NC(=O)[C@H](CO)NC(=O)[C@H](CSSC2(C)C)NC1=O [Example 27] (cyclo(AICSRS[tBuAla]PPI[Pen]IPD[Ahx]); disulfide 3-11)
IC50 (human MASP2): 37.5 nM
IC50 (human MASP1): 9.1 nM

CC[C@H](C)[C@@H]1NC(=O)CNC(=O)CCCCCNC(=O)[C@@H](CC(=O)O)NC(=O)[C@@H]2CCCN2C(=O)[C@H]([C@@H](C)CC)NC(=O)[C@@H]2CSSC[C@H](NC1=O)C(=O)N[C@@H](CO)C(=O)N[C@@H](CCCNC(=N)N)C(=O)N[C@@H](CO)C(=O)N[C@@H](CC(C)C)C(=O)N1CCC[C@H]1C(=O)N1CCC[C@H]1C(=O)N[C@@H]([C@@H](C)CC)C(=O)N2 [Example 16, [(6S,9S,12S,15S,18R,21S,34R,36aS,42S,45R,48S,50aS,55aS)-21,42,48-tri[(2S)-butan-2-yl]-12-(3-carbamimidamidopropyl)-9,15-bis(hydroxymethyl)-6-(2-methylpropyl)-5,8,11,14,17,20,23,26,33,36,41,44,47,50,55-pentadecaoxotetrapentacontahydro-1H-18,45-(methanodithiomethano)tripyrrolo[2,1-f:2′,1′-r:2″,1″-u][1,4,7,10,13,16,19,22,25,28,31,34,37,40,43]pentadecaazacyclononatetracontin-34-yl]acetic acid] (cyclo([Ahx]GICSRSLPPICIP[dD]); disulfide 4-12)
IC50 (human MASP2): 370 nM
IC50 (human MASP1): 150 nM

CC[C@H](C)[C@@H]1NC(=O)CNC(=O)CCCCCNC(=O)C[C@@H](C(N)=O)NC(=O)[C@@H]2CCCN2C(=O)[C@H]([C@@H](C)CC)NC(=O)[C@H]2NC(=O)[C@H]([C@@H](C)CC)NC(=O)[C@@H]3C[C@@H]4CCCC[C@@H]4N3C(=O)[C@@H]3CCCN3C(=O)[C@H](CC(C)C)NC(=O)[C@H](CO)NC(=O)[C@H](CCCNC(=N)N)NC(=O)[C@H](CO)NC(=O)[C@H](CSSC2(C)C)NC1=O [Example 49] ([Ahx]GICSRSLP[Oic]I[Pen]IPD-NH2; disulfide 4-12; lactam N-15)
IC50 (human MASP2): 140 nM
IC50 (human MASP1): 19 nM

CC[C@H](C)[C@@H]1NC(=O)CNC(=O)CNC(=O)[C@H](C)NC(=O)[C@@H](CC(=O)O)NC(=O)[C@@H]2CCCN2C(=O)[C@H]([C@@H](C)CC)NC(=O)[C@@H]2CSSC[C@H](NC1=O)C(=O)N[C@@H](CO)C(=O)N[C@@H](CCCNC(=N)N)C(=O)N[C@@H](CO)C(=O)N[C@@H](CC(C)(C)C)C(=O)N1CCC[C@H]1C(=O)N1CCC[C@H]1C(=O)N[C@@H]([C@@H](C)CC)C(=O)N2C [Example 47] (cyclo(AGGICSRS[tBuAla]PPI[NMeC]IP[dD]); disulfide 5-13)
IC50 (human MASP2): 66 nM
IC50 (human MASP1): 8.2 nM

CC[C@H](C)[C@@H]1NC(=O)CNC(=O)[C@H](CCCN)NC(=O)[C@H]([C@@H](C)CC)NC(=O)[C@H]2NC(=O)[C@H]([C@@H](C)CC)NC(=O)[C@@H]3CCCN3C(=O)[C@@H]3CCCN3C(=O)[C@H](CC(C)(C)C)NC(=O)[C@H](CO)NC(=O)[C@H](CCCNC(=N)N)NC(=O)[C@H](CO)NC(=O)[C@H](CSSC2(C)C)NC1=O [Example 65, N-{3-[(5aS,11S,14S,17S,20S,23R,26S,32S,35S,38R,41S,43aS)-32-(3-aminopropyl)-26,35,41-tri[(2S)-butan-2-yl]-11-(2,2-dimethylpropyl)-14,20-bis(hydroxymethyl)-44,44-dimethyl-5,10,13,16,19,22,25,28,31,34,37,40,43-tridecaoxodotetracontahydro-5H-23,38-(methanodithiomethano)dipyrrolo[1,2-a:1′,2′-d][1,4,7,10,13,16,19,22,25,28,31,34,37]tridecaazacyclononatriacontin-17-yl]propyl}guanidine] (cyclo(CSRS[tBuAla]PPI[Pen]I[Orn]GI); disulfide 1-9)
IC50 (human MASP2): 540 nM
IC50 (human MASP1): 49 nM

CC[C@H](C)[C@@H]1NC(=O)CNC(=O)[C@@H](N)CCC(=O)NCCCC[C@@H](C(N)=O)NC(=O)[C@H](CC(=O)O)NC(=O)[C@@H]2CCCN2C(=O)[C@H]([C@@H](C)CC)NC(=O)[C@H]2NC(=O)[C@H]([C@@H](C)CC)NC(=O)[C@@H]3C[C@@H]4CCCC[C@@H]4N3C(=O)[C@@H]3CCCN3C(=O)[C@H](CC(C)C)NC(=O)[C@H](CO)NC(=O)[C@H](CCCNC(=N)N)NC(=O)[C@H](CO)NC(=O)[C@H](CSSC2(C)C)NC1=O [Example 91] (H-EGICSRSLP[Oic]I[Pen]IPDK-NH2; lactam 1-16; disulfide 4-12)
IC50 (human MASP2): 71 nM
IC50 (human MASP1): 29 nM

CC[C@H](C)[C@@H]1NC(=O)[C@H](C)NC(=O)CNC(=O)[C@@H](N)Cn2cc(nn2)C[C@@H](C(N)=O)NC(=O)[C@@H]2CCCN2C(=O)[C@H]([C@@H](C)CC)NC(=O)[C@@H]2CSSC[C@H](NC1=O)C(=O)N[C@@H](CO)C(=O)N[C@@H](CCCNC(=N)N)C(=O)N[C@@H](CO)C(=O)N[C@@H](CC(C)(C)C)C(=O)N1CCC[C@H]1C(=O)N1CCC[C@H]1C(=O)N[C@@H]([C@@H](C)CC)C(=O)N2 [Example 81] (H-[Dap(N3)]GAICSRS[tBuAla]PPICIP[Pra]-NH2; triazole 1-16; disulfide 5-13)
IC50 (human MASP2): 230 nM
IC50 (human MASP1): 18 nM

CC[C@H](C)[C@@H]1NC(=O)[C@H](C)NC(=O)CNC(=O)[C@H](C)NC(=O)[C@H](CC(=O)O)NC(=O)[C@@H]2CCCN2C(=O)[C@H]([C@@H](C)CC)NC(=O)[C@@H]2CSSC[C@H](NC1=O)C(=O)N[C@@H](CO)C(=O)N[C@@H](CCCNC(=N)N)C(=O)N[C@@H](CO)C(=O)N[C@@H](CC(C)(C)C)C(=O)N1CCC[C@H]1C(=O)N1CCC[C@H]1C(=O)N[C@@H]([C@@H](C)CC)C(=O)N2C [Example 31] (cyclo(AGAICSRS[tBuAla]PPI[NMeC]IPD); disulfide 5-13)
IC50 (human MASP2): 130 nM
IC50 (human MASP1): 16 nM

CC[C@H](C)[C@@H]1NC(=O)CNC(=O)[C@H](CO)NC(=O)CNC(=O)[C@H](CO)NC(=O)[C@H](CC(=O)O)NC(=O)[C@@H]2CCCN2C(=O)[C@H]([C@@H](C)CC)NC(=O)[C@@H]2CSSC[C@H](NC1=O)C(=O)N[C@@H](CO)C(=O)N[C@@H](CCCNC(=N)N)C(=O)N[C@@H](CO)C(=O)N[C@@H](CC(C)C)C(=O)N1CCC[C@H]1C(=O)N1CCC[C@H]1C(=O)N[C@@H]([C@@H](C)CC)C(=O)N2 [Example 21] (cyclo(CIPDSGSGICSRSLPPI); disulfide 1-10)
IC50 (human MASP2): 120 nM
IC50 (human MASP1): 170 nM

CC[C@H](C)[C@@H]1NC(=O)CNC(=O)CCCCCNC(=O)[C@H](CC(=O)O)NC(=O)[C@@H]2CCCN2C(=O)[C@H]([C@@H](C)CC)NC(=O)[C@@H]2CSSC[C@H](NC1=O)C(=O)N[C@@H](CO)C(=O)N[C@@H](CCCNC(=N)N)C(=O)N[C@@H](CO)C(=O)N[C@@H](CC(C)(C)C)C(=O)N1CCC[C@H]1C(=O)N1CCC[C@H]1C(=O)N[C@@H]([C@@H](C)CC)C(=O)N2C [Example 30] (cyclo([Ahx]GICSRS[tBuAla]PPI[NMeC]IPD); disulfide 4-12)
IC50 (human MASP2): 65 nM
IC50 (human MASP1): 16 nM

CC[C@H](C)[C@@H]1NC(=O)[C@H](CCN)NC(=O)[C@H](CN)NC(=O)[C@H]([C@@H](C)CC)NC(=O)[C@H]2NC(=O)[C@H]([C@@H](C)CC)NC(=O)[C@@H]3CCCN3C(=O)[C@@H]3CCCN3C(=O)[C@H](CC(C)(C)C)NC(=O)[C@H](CO)NC(=O)[C@H](CCCNC(=N)N)NC(=O)[C@H](CO)NC(=O)[C@H](CSSC2(C)C)NC1=O [Example 73] (cyclo(CSRS[tBuAla]PPI[Pen]I[Dap][Dab]I); disulfide 1-9)
IC50 (human MASP2): 430 nM
IC50 (human MASP1): 42 nM

CC[C@H](C)[C@@H]1NC(=O)CNC(=O)[C@@H](N)CCC(=O)NCCCC[C@@H](C(N)=O)NC(=O)[C@@H]2CCCN2C(=O)[C@H]([C@@H](C)CC)NC(=O)[C@H]2NC(=O)[C@H]([C@@H](C)CC)NC(=O)[C@@H]3C[C@@H]4CCCC[C@@H]4N3C(=O)[C@@H]3CCCN3C(=O)[C@H](CC(C)C)NC(=O)[C@H](CO)NC(=O)[C@H](CCCNC(=N)N)NC(=O)[C@H](CO)NC(=O)[C@H](CSSC2(C)C)NC1=O [Example 90] (H-EGICSRSLP[Oic]I[Pen]IPK-NH2; lactam 1-15; disulfide 4-12)
IC50 (human MASP2): 110 nM
IC50 (human MASP1): 9.8 nM
